Data reported in patent EP4574818A1, “ONIUM SALT OF NITROGEN-CONTAINING HETEROARYL COMPOUND AND PEST CONTROL AGENT” (priority 2022, dated 2024).

What was measured:
Assay type in all cases: in vivo
Plutella xylostella = experiment: Efficacy test against Plutella xylostella (cabbage leaf immersion); conditions: 72 h; 125 ppm by mass; cabbage leaf immersed 30 seconds; second-instar larvae of Plutella xylostella; 25°C, humidity 60%; after three days; read-out: mortality
Experimental: The emulsion (II) was diluted with water at the same dilution ratio as the diluted solution (I), thereby obtaining a diluted solution (II). A cabbage leaf was immersed in each of the diluted solutions for 30 seconds. Each cabbage leaf after immersion was air-dried and then put in a petri dish, followed by leaving five second-instar larvae of Plutella xylostella therein. The petri dishes were placed in a thermostatic chamber at a temperature of 25°C and a humidity of 60%. After three days had passed from leaving the larvae, life or death was assessed and the mortality was calculated. The test was repeated twice.

Spodoptera litura = experiment: Efficacy test against Spodoptera litura (cabbage leaf immersion); conditions: 144 h, 125 ppm by mass, cabbage leaf immersed 30 seconds, second-instar larvae, 25°C, humidity 60%, after six days, read-out: mortality of Spodoptera litura
Experimental: A cabbage leaf was immersed in the diluted solution for 30 seconds. The cabbage leaf was air-dried and then put in a petri dish, followed by leaving five second-instar larvae of Spodoptera litura therein. The petri dish was placed in a thermostatic chamber at a temperature of 25°C and a humidity of 60%. After six days had passed from leaving the larvae, life or death was assessed and the mortality was calculated. The test was repeated twice.

Mythimna separata = experiment: Efficacy test against Mythimna separata (treated artificial feed); conditions: 1 µl of emulsion (I) (5% by mass active ingredient) mixed with 0.8 g artificial feed; second-instar larvae; 25°C; after five days
Experimental: 5 parts by mass of a compound of the present invention, 93.6 parts by mass of dimethylformamide, and 1.4 parts by mass of polyoxyethylene alkyl aryl ether were mixed and dissolved to obtain an emulsion (I) containing 5% by mass of the active ingredient.
0.8 g of commercially-available artificial feed (Insect LFS, manufactured by Nosan Corporation) and 1 µl of the emulsion (I) were mixed well, and then 0.2 g of the mixture per treated area was packed into plastic test containers (each having a capacity of 1.4 ml) as test feeds.
Two second-instar larvae of Mythimna separata were left per treated area, and then the test containers were sealed with plastic covers. The test containers were placed in a thermostatic chamber at 25°C, and, after five days had passed therefrom, the mortality and the feed intake were measured. The test was repeated twice.
In addition, the test was carried out under the same conditions as described above, except that the emulsion (II) was used instead of the emulsion (I), and evaluated as a solvent control area.

SMILES: Cc1cc[n+]([N-]C(=O)c2cc(Cl)nc(Oc3ccc(OC(F)(F)C(F)(F)F)cc3)c2)cc1 [Compound 5]
- mortality at 125 ppm (Plutella xylostella): ≥ 80%
- mortality at 125 ppm (Spodoptera litura): ≥ 80%

SMILES: COc1cc[n+]([N-]C(=O)c2cc(Cl)nc(Oc3ccc(OC(F)(F)C(F)(F)F)cc3)c2)cc1 [Compound 6]
- mortality at 125 ppm (Plutella xylostella): ≥ 80%
- mortality at 125 ppm (Spodoptera litura): ≥ 80%

SMILES: Cn1c[n+]([N-]C(=O)c2cc(Cl)nc(Oc3ccc(OC(F)(F)C(F)(F)F)cc3)c2)cn1 [Compound 8]
- mortality at 125 ppm (Spodoptera litura): ≥ 80%

SMILES: Cn1cc[n+]([N-]C(=O)c2cc(Cl)nc(Oc3ccc(OC(F)(F)C(F)(F)F)cc3)c2)c1 [Compound 9]
- mortality at 125 ppm (Plutella xylostella): ≥ 80%
- mortality at 125 ppm (Spodoptera litura): ≥ 80%

SMILES: O=C([N-][n+]1cccc(F)c1)c1cc(Cl)nc(Oc2ccc(OC(F)(F)C(F)F)cc2)c1 [Compound 11]
- mortality at 125 ppm (Plutella xylostella): ≥ 80%
- mortality at 125 ppm (Spodoptera litura): ≥ 80%

SMILES: O=C([N-][n+]1ccccc1)c1cc(Br)nc(Oc2ccc(OC(F)(F)C(F)(F)F)cc2)c1 [Compound 12]
- mortality at 125 ppm (Plutella xylostella): ≥ 80%
- mortality at 125 ppm (Spodoptera litura): ≥ 80%

SMILES: O=C([N-][n+]1ccccc1)c1cc(Br)nc(Oc2ccc(OC(F)(F)C(F)F)cc2)c1 [Compound 13]
- mortality at 125 ppm (Plutella xylostella): ≥ 80%
- mortality at 125 ppm (Spodoptera litura): ≥ 80%

SMILES: N#Cc1cc(C(=O)[N-][n+]2ccccc2)cc(Oc2ccc(OC(F)(F)C(F)(F)F)cc2)n1 [Compound 14]
- mortality at 125 ppm (Plutella xylostella): ≥ 80%
- mortality at 125 ppm (Spodoptera litura): ≥ 80%

SMILES: O=C([N-][n+]1ccccc1)c1cc(Cl)nc(Oc2ccc(C3(C(F)(F)F)CC3)cc2)c1 [Compound 15]
- mortality at 125 ppm (Plutella xylostella): ≥ 80%
- mortality at 125 ppm (Spodoptera litura): ≥ 80%

SMILES: O=C([N-][n+]1ccccc1)c1cc(Cl)nc(Oc2ccc(OC(F)(F)C(F)OC(F)(F)F)cc2)c1 (stereo not shown) [Compound 16]
- mortality at 125 ppm (Plutella xylostella): ≥ 80%
- mortality at 125 ppm (Spodoptera litura): ≥ 80%

SMILES: O=C([N-][n+]1cnn(CC(F)(F)F)c1)c1cc(Cl)nc(Oc2ccc(OC(F)(F)C(F)(F)F)cc2)c1 [Compound 17]
- mortality at 125 ppm (Plutella xylostella): ≥ 80%
- mortality at 125 ppm (Spodoptera litura): ≥ 80%

SMILES: O=C([N-][n+]1cnn(CC(F)F)c1)c1cc(Cl)nc(Oc2ccc(OC(F)(F)C(F)(F)F)cc2)c1 [Compound 18]
- mortality at 125 ppm (Plutella xylostella): ≥ 80%
- mortality at 125 ppm (Spodoptera litura): ≥ 80%

SMILES: O=C([N-][n+]1ccccc1)c1cc(Oc2ccc(OC(F)(F)F)cc2)nc(Oc2ccc(OC(F)(F)F)cc2)c1 [Compound 208]
- mortality at 125 ppm (Plutella xylostella): ≥ 80%
- mortality at 125 ppm (Spodoptera litura): ≥ 80%

SMILES: N#Cc1ccc(Oc2cc(C(=O)[N-][n+]3ccccc3)cc(Cl)n2)cc1 [Compound 209]
- mortality of Mythimna separata or feed intake relative to the feed intake at the solvent control area (Mythimna separata): 100% mortality of Mythimna separata or 10% or less of the feed intake

SMILES: CCn1c[n+]([N-]C(=O)c2cc(Cl)nc(Oc3ccc(C4CC4(Cl)Cl)cc3)c2)cn1 (stereo not shown) [Compound 210]
- mortality of Mythimna separata or feed intake relative to the feed intake at the solvent control area (Mythimna separata): 100% mortality of Mythimna separata or 10% or less of the feed intake

SMILES: CCn1c[n+]([N-]C(=O)c2cc(Cl)nc(Oc3ccc(C4CC4(F)F)cc3)c2)cn1 (stereo not shown) [Compound 212]
- mortality of Mythimna separata or feed intake relative to the feed intake at the solvent control area (Mythimna separata): 100% mortality of Mythimna separata or 10% or less of the feed intake

SMILES: O=C([N-][n+]1ccccc1)c1cc(Cl)nc(Oc2ccc(C3CC3(F)F)cc2)c1 (stereo not shown) [Compound 213]
- mortality of Mythimna separata or feed intake relative to the feed intake at the solvent control area (Mythimna separata): 100% mortality of Mythimna separata or 10% or less of the feed intake

SMILES: CCn1c[n+]([N-]C(=O)c2cc(Cl)nc(Oc3ccc4nc(C(F)(F)F)ccc4c3)c2)cn1 [Compound 216]
- mortality of Mythimna separata or feed intake relative to the feed intake at the solvent control area (Mythimna separata): 100% mortality of Mythimna separata or 10% or less of the feed intake

SMILES: O=C([N-][n+]1ccccc1)c1cc(Cl)nc(Oc2cnn(C=C(F)C(F)(F)F)c2)c1 [Compound 217]
- mortality at 125 ppm (Spodoptera litura): ≥ 80%

SMILES: COC(=O)c1cc(C(=O)[N-][n+]2ccccc2)cc(Oc2ccc(OC(F)(F)C(F)(F)F)cc2)n1 [Compound 220]
- mortality at 125 ppm (Plutella xylostella): ≥ 80%

SMILES: O=C([N-][n+]1ccccc1)c1cc(Oc2ccc(SC(F)(F)C(F)F)cc2)nc(-n2cccn2)c1 [Compound 221]
- mortality at 125 ppm (Plutella xylostella): ≥ 80%
- mortality at 125 ppm (Spodoptera litura): ≥ 80%
